What was measured:
Type in all cases: in vivo
Diabrotica balteata = assay: Activity against Diabrotica balteata (corn root worm), maize sprouts; conditions: for percent effect (mortality or growth inhibition) at 200 ppm: 96 h, application rate 200 ppm, L2 larvae, 4 days after infestation, read-out: effect in at least one of the two categories (mortality or growth inhibition); for Mortality (%) / mortality at 50 ppm: concentration 50 ppm
Procedure: Example B3: Activity Against Diabrotica Balteata (Corn Root Worm)
Maize sprouts placed onto an agar layer in 24-well microtiter plates were treated with aqueous test solutions prepared from 10′000 ppm DMSO stock solutions by spraying. After drying, the plates were infested with L2 larvae (6 to 10 per well). The samples were assessed for mortality and growth inhibition in comparison to untreated samples 4 days after infestation.

Myzus persicae [1] = assay: Activity against Myzus persicae (green peach aphid), feeding/contact activity, sunflower leaf discs; conditions: Myzus persicae, foliar; for mortality at 200 ppm: 144 h, application rate 200 ppm, feeding/contact, 6 days after infestation
Procedure: Example B4: Activity Against Myzus persicae (Green Peach Aphid) Feeding/Contact Activity
Sunflower leaf discs were placed on agar in a 24-well microtiter plate and sprayed with aqueous test solutions prepared from 10′000 ppm DMSO stock solutions. After drying, the leaf discs were infested with an aphid population of mixed ages. The samples were assessed for mortality 6 days after infestation.

Myzus persicae [2] = assay: Activity against Myzus persicae (green peach aphid), systemic activity, pea seedlings; conditions: for mortality at 24 ppm: Myzus persicae
Procedure: Example B5: Activity Against Myzus persicae (Green Peach Aphid) Systemic Activity
Roots of pea seedlings infested with an aphid population of mixed ages were placed directly in the aqueous test solutions prepared from 10′000 DMSO stock solutions. The samples were assessed for mortality 6 days after placing seedlings in test solutions.

Bemisia tabaci = assay: Activity against Bemisia tabaci (cotton white fly), cotton leaf discs; conditions: for mortality at 200 ppm / mortality at 12.5 ppm: foliar; for mortality at 200 ppm: 144 h, application rate 200 ppm, adult white flies, 6 days after incubation
Procedure: Example B6: Activity Against Bemisia tabaci (Cotton White Fly)
Cotton leaf discs were placed on agar in 24-well microtiter plates and sprayed with aqueous test solutions prepared from 10′000 ppm DMSO stock solutions. After drying the leaf discs were infested with adult white flies. The samples were checked for mortality 6 days after incubation.

Euschistus heros = assay: Activity against Euschistus heros (neotropical brown stink bug), soybean leaf; conditions: 120 h, application rate 200 ppm, N-2 nymphs, 5 days after infestation, read-out: effect in at least one of the two categories (mortality or growth inhibition)
Procedure: Example B7: Activity Against Euschistus heros (Neotropical Brown Stink Bug)
Soybean leaf on agar in 24-well microtiter plates were sprayed with aqueous test solutions prepared from 10′000 ppm DMSO stock solutions. After drying the leaf were infested with N-2 nymphs. The samples were assessed for mortality and growth inhibition in comparison to untreated samples 5 days after infestation.

Plutella xylostella = assay: Activity against Plutella xylostella (diamond back moth), artificial diet, eggs; conditions: 192 h, application rate 200 ppm, 8 days after infestation, read-out: effect in at least one of the two categories (mortality or growth inhibition)
Procedure: Example B9: Activity Against Plutella xylostella (Diamond Back Moth)
24-well microtiter plates with artificial diet were treated with aqueous test solutions prepared from 10′000 ppm DMSO stock solutions by pipetting. After drying, Plutella eggs were pipetted through a plastic stencil onto a gel blotting paper and the plate was closed with it. The samples were assessed for mortality and growth inhibition in comparison to untreated samples 8 days after infestation.

Spodoptera littoralis = assay: Activity against Spodoptera littoralis (Egyptian cotton leaf worm), cotton leaf discs; conditions: foliar, 72 h, application rate 200 ppm, L1 larvae, 3 days after infestation, read-out: control (mortality, anti-feeding effect or growth inhibition)
Procedure: Example B1: Activity Against Spodoptera littoralis (Egyptian Cotton Leaf Worm)
Cotton leaf discs were placed onto agar in 24-well microtiter plates and sprayed with aqueous test solutions prepared from 10′000 ppm DMSO stock solutions. After drying the leaf discs were infested with five L1 larvae. The samples were assessed for mortality, anti-feeding effect, and growth inhibition in comparison to untreated samples 3 days after infestation. Control of Spodoptera littoralis by a test sample is given when at least one of the categories mortality, anti-feedant effect, and growth inhibition is higher than the untreated sample.

[3] = 144 h, test rate 24 ppm, systemic, 6 days after placing seedlings in test solutions
[4] = Myzus persicae (systemic), concentration 24 ppm

SMILES	percent effect (mortality or growth inhibition) at 200 ppm (Diabrotica balteata) [%]	mortality at 200 ppm (Myzus persicae [1]) [%]	mortality at 24 ppm (Myzus persicae [2]; [3]) [%]	mortality at 200 ppm (Bemisia tabaci) [%]	percent effect (mortality or growth inhibition) at 200 ppm (Euschistus heros) [%]	Mortality (%) (Diabrotica balteata)	percent effect (mortality or growth inhibition) at 200 ppm (Plutella xylostella) [%]	percent control (mortality, anti-feedant effect or growth inhibition) at 200 ppm (Spodoptera littoralis) [%]	Mortality (%) (Myzus persicae [2]; Myzus persicae (systemic), concentration 6 ppm)	mortality at 0.781 ppm (Myzus persicae [1]; Myzus persicae (feeding/contact), concentration 0.781 ppm) [%]	mortality at 12.5 ppm (Bemisia tabaci; concentration 12.5 ppm) [%]	mortality at 50 ppm (Diabrotica balteata) [%]	mortality at 12.5 ppm (Myzus persicae [1]; Myzus persicae (feeding/contact), concentration 12.5 ppm) [%]	mortality at 12.5 ppm (Diabrotica balteata; concentration 12.5 ppm) [%]	mortality at 3.125 ppm (Myzus persicae [1]; Myzus persicae (feeding/contact), concentration 3.125 ppm) [%]	Mortality (%) (Bemisia tabaci; concentration 12.5 ppm)	mortality at 24 ppm (Myzus persicae [2]; [4]) [%]
CCS(=N)(=O)c1cc(C2(C#N)CC2)cnc1-c1nc2cc(C(F)(F)F)nnc2n1C (racemic) [Compound P2, 1-[5-(ethylsulfonimidoyl)-6-[7-methyl-3-(trifluoromethyl)imidazo[4,5-c]pyridazin-6-yl]-3-pyridyl]cyclopropanecarbonitrile]	≥ 80	≥ 80	≥ 80	≥ 80	≥ 80	–	–	–	–	–	–	–	–	–	–	–	–
CCS(=N)(=O)c1cc(C2(C#N)CC2)ccc1-c1nc2cc(C(F)(F)F)ncc2n1C (racemic) [Compound P18, 1-[3-(ethylsulfonimidoyl)-4-[3-methyl-6-(trifluoromethyl)imidazo[4,5-c]pyridin-2-yl]phenyl]cyclopropanecarbonitrile]	≥ 80	≥ 80	≥ 80	≥ 80	≥ 80	–	–	–	–	–	–	–	–	–	–	–	–
CCS(=N)(=O)c1cc(C2(C#N)CC2)ccc1-c1nc2cc(C(F)(F)F)cnc2n1C (single isomer, unassigned) [Compound P6-B, 1-[3-(ethylsulfonimidoyl)-4-[3-methyl-6-(trifluoromethyl)imidazo[4,5-b]pyridin-2-yl]phenyl]cyclopropanecarbonitrile]	–	–	–	–	–	80	≥ 80	≥ 80	100	–	–	–	–	–	–	–	–
CCS(=N)(=O)c1cc(C2(C#N)CC2)cnc1-c1nc2cc(C(F)(F)F)ncc2n1C (single isomer, unassigned) [Compound P10-A, 1-[5-(ethylsulfonimidoyl)-6-[3-methyl-6-(trifluoromethyl)imidazo[4,5-c]pyridin-2-yl]-3-pyridyl]cyclopropanecarbonitrile]	≥ 80	≥ 80	≥ 80	≥ 80	–	–	≥ 80	–	–	80	80	–	–	–	–	–	–
CCS(=N)(=O)c1cc(C(C)(C)C#N)cnc1-c1nc2cc(C(F)(F)F)cnc2n1C (single isomer, unassigned) [Compound P12-A, 2-[5-(ethylsulfonimidoyl)-6-[3-methyl-6-(trifluoromethyl)imidazo[4,5-b]pyridin-2-yl]-3-pyridyl]-2-methyl-propanenitrile]	≥ 80	≥ 80	≥ 80	≥ 80	–	–	≥ 80	–	–	–	–	–	–	–	–	–	–
CCS(=N)(=O)c1cc(OC(C)(C)C#N)cnc1-c1nc2cc(C(F)(F)F)ncc2n1C (single isomer, unassigned) [Compound P13-A, 2-[[5-(ethylsulfonimidoyl)-6-[3-methyl-6-(trifluoromethyl)imidazo[4,5-c]pyridin-2-yl]-3-pyridyl]oxy]-2-methyl-propanenitrile]	≥ 80	≥ 80	≥ 80	≥ 80	–	–	≥ 80	–	–	–	–	80	80	–	–	–	–
CCS(=N)(=O)c1cc(OC(C)(C)C#N)cnc1-c1nc2cc(C(F)(F)F)nnc2n1C (single isomer, unassigned) [Compound P15-A, 2-[[5-(ethylsulfonimidoyl)-6-[7-methyl-3-(trifluoromethyl)imidazo[4,5-c]pyridazin-6-yl]-3-pyridyl]oxy]-2-methyl-propanenitrile]	≥ 80	≥ 80	≥ 80	≥ 80	–	–	≥ 80	≥ 80	–	–	–	–	–	80	–	–	–
CCS(=N)(=O)c1cc(C2(C#N)CC2)cnc1-c1nc2cc(C(F)(F)F)cnc2n1C (single isomer, unassigned) [Compound P16-A, 1-[5-(ethylsulfonimidoyl)-6-[3-methyl-6-(trifluoromethyl)imidazo[4,5-b]pyridin-2-yl]-3-pyridyl]cyclopropanecarbonitrile]	≥ 80	≥ 80	≥ 80	≥ 80	–	–	≥ 80	–	–	–	100	–	–	–	100	–	–
CCS(=N)(=O)c1cc(OC(C)(C)C#N)c(C)nc1-c1nc2cc(C(F)(F)F)ncc2n1C (single isomer, unassigned) [Compound P17-A, 2-[[5-(ethylsulfonimidoyl)-2-methyl-6-[3-methyl-6-(trifluoromethyl)imidazo[4,5-c]pyridin-2-yl]-3-pyridyl]oxy]-2-methyl-propanenitrile]	≥ 80	≥ 80	≥ 80	≥ 80	–	–	≥ 80	–	–	–	–	–	–	–	–	–	–
CCS(=N)(=O)c1cc(C2(C#N)CC2)ccc1-c1nc2cc(C(F)(F)F)ncc2n1C (single isomer, unassigned) [Compound P18-A, 1-[3-(ethylsulfonimidoyl)-4-[3-methyl-6-(trifluoromethyl)imidazo[4,5-c]pyridin-2-yl]phenyl]cyclopropanecarbonitrile]	≥ 80	≥ 80	≥ 80	≥ 80	–	100	≥ 80	–	–	–	–	–	–	–	–	100	–
CCS(=N)(=O)c1cc(C2(C#N)CC2)ccc1-c1nc2cc(C(F)(F)F)ncc2n1C (single isomer, unassigned) [Compound P18-B, 1-[3-(ethylsulfonimidoyl)-4-[3-methyl-6-(trifluoromethyl)imidazo[4,5-c]pyridin-2-yl]phenyl]cyclopropanecarbonitrile]	–	–	–	–	≥ 80	–	–	–	–	–	80	100	–	–	–	–	–
CC[S@@](=N)(=O)c1cc(OC(C)(C)C#N)cnc1-c1nc2cc(C(F)(F)F)cnc2n1C [Compound P9-A, (R)-2-[[5-(ethylsulfonimidoyl)-6-[3-methyl-6-(trifluoromethyl)imidazo[4,5-b]pyridin-2-yl]-3-pyridyl]oxy]-2-methyl-propanenitrile]	≥ 80	≥ 80	≥ 80	≥ 80	–	–	≥ 80	≥ 80	–	–	–	80	–	–	–	–	100
CC[S@](=N)(=O)c1cc(OC(C)(C)C#N)cnc1-c1nc2cc(C(F)(F)F)cnc2n1C [Compound P9-B, (S)-2-[[5-(ethylsulfonimidoyl)-6-[3-methyl-6-(trifluoromethyl)imidazo[4,5-b]pyridin-2-yl]-3-pyridyl]oxy]-2-methyl-propanenitrile]	≥ 80	≥ 80	≥ 80	≥ 80	–	–	≥ 80	≥ 80	–	–	–	100	–	–	–	–	100

Source: US20250081967A1, “PESTICIDALLY ACTIVE HETEROCYCLIC DERIVATIVES WITH SULFOXIMINE CONTAINING SUBSTITUENTS” (SYNGENTA CROP PROTECTION AG, priority 2021, published 2025)
